Our source for the IC50 values is patent US8426446B2, “Acrylamide derivative and use thereof in manufacture of medicament” (Beijing Shiqiao Biopharm Co. Ltd., priority 2009, dated 2013).

For the first experiment, the system named is Human Leukemia Cell K562. As to the kind of experiment: Inhibitory effects on Human Leukemia Cell K562 (MTT). The experiment is classed as cell-based. As to conditions: Homo sapiens, K562 cells, 72 h~120 h. The procedure:
K562 cells were seeded in RPMI1640 cell culture solution containing 10% of fetal calf serum (supplemented with 100 ku/L of penicillin and streptomycin each). Culture dish was placed in the cell incubator under 5% of CO2 at 37° C. The culture solution was centrifuged and replaced every 2-3 days to passage and collect cells.
Cells in logarithmic growth phase were formulated into the cell suspensions at the required concentration with RPMI1640 culture solution containing 10% fetal calf serum. The resulting mixture was added to 96-wells cell culture plate at 3,000 cells per well (100 μl); after 12 hours of culture, to each well was added different amount of stock solution. The final concentrations of the samples are 100 μg/ml, 10 μg/ml, 1 μg/ml, […], and 0.01 μg/ml respectively in triplicate. After 72 h˜120 h, supernatant was discarded. To each well was added […] fresh serum-free culture solution containing 5 mg/ml blue tetrazolium (MTT). After culturing for 4 hours at 37° C., the mixture was centrifuged at 3000 rpm/min and the supernatant was discarded. Formazan was dissolved with 200 μl DMSO. After vortex oscillation for 1 min, absorbance value (OD-value) was measured on microplate reader at the wavelength of 570/450 nm. Inhibition ratio=(control group OD-value−drug group OD-value)/control group OD-value×100%.
Broadly, the IC50 is the point on the concentration scale where inhibition reaches its midpoint. Higher therefore signals weaker potency in that assay. In the case of `Cc1ccc(C(=O)Nc2ccc(C)c(NC(=O)/C=C/c3cccnc3)c2)cc1` [compound 1, N-(4-methyl-3-(3-(pyridin-3-yl)acrylamido)phenyl)-4-methylbenzamide], the IC50 was less than 2.7 nM.
As for `Cc1ccc(NC(=O)c2ccc(F)cc2)cc1NC(=O)/C=C/c1cccnc1` [compound 2, N-(4-methyl-3-(3-(pyridin-3-yl)acrylamido)phenyl)-4-fluoro benzamide], the IC50 is less than 2.7 nM.
The same measure, in the same setting: under `Cc1ccc(NC(=O)c2ccc(F)cc2F)cc1NC(=O)/C=C/c1cccnc1` [compound 3, N-(4-methyl-3-(3-(pyridin-3-yl)acrylamido)phenyl)-2,4-difluoro benzamide] stands less than 2.5 nM; under `Cc1ccc(NC(=O)c2ccc(Cl)cc2Cl)cc1NC(=O)/C=C/c1cccnc1` [compound 4, N-(4-methyl-3-(3-(pyridin-3-yl)acrylamido)phenyl)-2,4-dichloro benzamide], 2 to 20 nM; under `Cc1ccc(NC(=O)c2cc(C(F)(F)F)cc(C(F)(F)F)c2)cc1NC(=O)/C=C/c1cccnc1` [compound 5, N-(4-methyl-3-(3-(pyridin-3-yl)acrylamido)phenyl)-3,5-bis-(trifluoromethyl)benzamide], 1 to 20 nM.
On the same count and under the same terms, then `Cc1ccc(NC(=O)c2ccc(C)c(C(F)(F)F)c2)cc1NC(=O)/C=C/c1cccnc1` [compound 7, N-(4-methyl-3-(3-(pyridin-3-yl)acrylamido)phenyl)-3-(rifluoromethyl)-4-methyl benzamide], with less than 1 nM.
Still for that read-out and setting: then `Cc1ccc(NC(=O)c2cc(F)cc(C(F)(F)F)c2)cc1NC(=O)/C=C/c1cccnc1` [compound 10, N-(4-methyl-3-(3-(pyridin-3-yl)acrylamido)phenyl)-3-fluoro-5-(trifluoromethyl)benzamide], with less than 1 nM; and `Cc1ccc(NC(=O)c2ccc(CN3CCN(C)CC3)cc2)cc1NC(=O)/C=C/c1cccnc1` [compound 11, N-(4-methyl-3-(3-(pyridin-3-yl)acrylamido)phenyl)-4-((4-methylpiperazin-1-yl)methyl)benzamide], with less than 2 nM.
In the case of `Cc1ccc(NC(=O)c2ccc(CN3C[C@@H](C)N[C@@H](C)C3)cc2)cc1NC(=O)/C=C/c1cccnc1` [compound 12], the 50% inhibitory concentration (IC50) is less than 5 nM.
Compound `CCN1CCN(Cc2ccc(C(=O)Nc3ccc(C)c(NC(=O)/C=C/c4cccnc4)c3)cc2)CC1` [compound 13, N-(4-methyl-3-(3-(pyridin-3-yl)acrylamido)phenyl)-4-((4-ethylpiperazin-1-yl)methyl)benzamide] yielded an IC50 of 2 nM.
On the same count and under the same terms, then `Cc1ccc(NC(=O)c2ccc(CN3CCN(C)CC3)c(C(F)(F)F)c2)cc1NC(=O)/C=C/c1cccnc1` [compound 19, N-(4-methyl-3-(3-(pyridin-3-yl)acrylamido)phenyl)-4-((4-methylpiperazin-1-yl)methyl)-3-(trifluoromethyl)benzamide], with less than 1 nM; and `CCN1CCN(Cc2ccc(C(=O)Nc3ccc(C)c(NC(=O)/C=C/c4cccnc4)c3)cc2C(F)(F)F)CC1` [compound 20, N-(4-methyl-3-(3-(pyridin-3-yl)acrylamido)phenyl)-4-((4-ethylpiperazin-1-yl)methyl)-3-(trifluoromethyl)benzamide], with less than 1 nM.
With `Cc1ccc(NC(=O)c2ccc(CN3CCOCC3)c(C(F)(F)F)c2)cc1NC(=O)/C=C/c1cccnc1` [compound 21, N-(4-methyl-3-(3-(pyridin-3-yl)acrylamido)phenyl)-4-(morpholin-4-ylmethyl)-3-(trifluoromethyl)benzamide], the midpoint of inhibition, the IC50, lay at 2 nM.
`Cc1ccc(NC(=O)c2ccc(CN3CC[C@@H](N(C)C)C3)c(C(F)(F)F)c2)cc1NC(=O)/C=C/c1cccnc1` [compound 22, N-(4-methyl-3-(3-(pyridin-3-yl)acrylamido)phenyl)-4-(((R)-3-(dimethylamino)pyrrolidin-1-yl)methyl)-3-(trifluoromethyl)benzamide] gave an IC50 of less than 1 nM.
The same measure, in the same setting: under `Cc1ccc(NC(=O)c2ccc(CN3CCC(N(C)C)C3)c(C(F)(F)F)c2)cc1NC(=O)/C=C/c1cccnc1` [compound 23, N-(4-methyl-3-(3-(pyridin-3-yl)acrylamido)phenyl)-4-(((S)-3-(dimethylamino)pyrrolidin-1-yl)methyl)-3-(trifluoromethyl)benzamide] stands less than 1 nM; under `Cc1ccc(NC(=O)c2ccc(CN3CCCN(C)CC3)c(C(F)(F)F)c2)cc1NC(=O)/C=C/c1cccnc1` [compound 25, N-(4-methyl-3-(3-(pyridin-3-yl)acrylamido)phenyl)-4-((4-methyl-1,4-homopiperazin-1-yl)methyl)-3-(trifluoromethyl)benzamide], 2 to 20 nM; under `Cc1ccc(NC(=O)c2ccc(CN3CCN(C)CC3)c(Br)c2)cc1NC(=O)/C=C/c1cccnc1` [compound 26, N-(4-methyl-3-(3-(pyridin-3-yl)acrylamido)phenyl)-4-((4-dimethylpiperazin-1-yl)methyl)-3-bromobenzamide], 2 to 20 nM.
Still for that read-out and setting: under `Cc1ccc(NC(=O)c2cc(C(F)(F)F)cc(C(F)(F)F)c2)cc1NC(=O)/C=C/c1cncnc1` [compound 31, N-(4-methyl-3-(3-(pyrimidin-5-yl)acrylamido)phenyl)-3,5-bis-(trifluoromethyl)benzamide] stands less than 1 nM; under `Cc1ccc(NC(=O)c2ccc(C)c(C(F)(F)F)c2)cc1NC(=O)/C=C/c1cncnc1` [compound 32, N-(4-methyl-3-(3-(pyrimidin-5-yl)acrylamido)phenyl)-4-methyl-3-(trifluoromethyl)benzamide], less than 1 nM.
On the same count and under the same terms, then `Cc1ccc(NC(=O)c2cc(F)cc(C(F)(F)F)c2)cc1NC(=O)/C=C/c1cncnc1` [compound 33, N-(4-methyl-3-(3-(pyrimidin-5-yl)acrylamido)phenyl)-5-fluoro-3-(trifluoromethyl)benzamide], with less than 1 nM; and `Cc1ccc(NC(=O)c2ccc(CN3CCN(C)CC3)c(C(F)(F)F)c2)cc1NC(=O)/C=C/c1cncnc1` [compound 39, N-(4-methyl-3-(3-(pyrimidin-5-yl)acrylamido)phenyl)-4-((4-methylpiperazin-1-yl)methyl)-3-(trifluoromethyl)benzamide], with less than 1 nM.
Consider `Cc1ccc(NC(=O)c2ccc(CN3CC[C@@H](N(C)C)C3)c(C(F)(F)F)c2)cc1NC(=O)/C=C/c1cncnc1` [compound 42, N-(4-methyl-3-(3-(pyrimidin-5-yl)acrylamido)phenyl)-4-(((R)-3-(dimethylamino)pyrrolidin-1-yl)methyl)-3-(trifluoromethyl)benzamide], for which the half-inhibitory concentration (IC50) was less than 1 nM.
In turn, `Cc1ccc(NC(=O)c2ccc(CN3CCC(N(C)C)C3)c(C(F)(F)F)c2)cc1NC(=O)/C=C/c1cncnc1` [compound 43, N-(4-methyl-3-(3-(pyrimidin-5-yl)acrylamido)phenyl)-4-(((S)-3-(dimethylamino)pyrrolidin-1-yl)methyl)-3-(trifluoromethyl)benzamide] gave an IC50 of less than 1 nM.
On the same count and under the same terms, under `Cc1ccc(C(=O)Nc2ccc(F)c(Cl)c2)cc1NC(=O)/C=C/c1cccnc1` [compound 50, N-(3-chloro-4-fluorophenyl)-4-methyl-3-(3-(pyridin-3-yl)acrylamido)benzamide] stands 2 to 20 nM; under `Cc1ccc(C(=O)Nc2cccc(C(F)(F)F)c2)cc1NC(=O)/C=C/c1cccnc1` [compound 51, N-(3-(trifluoromethyl)phenyl)-4-methyl-3-(3-(pyridin-3-yl)acrylamido)benzamide], less than 2 nM; under `Cc1ccc(C(=O)Nc2ccc(Br)cc2F)cc1NC(=O)/C=C/c1cccnc1` [compound 52, N-(4-bromo-2-fluorophenyl)-4-methyl-3-(3-(pyridin-3-yl)acrylamido)benzamide], less than 2 nM.
For the compound `Cc1ccc(C(=O)Nc2ccc(OC(F)(F)F)cc2)cc1NC(=O)/C=C/c1cccnc1` [compound 53, N-(4-(trifluoromethoxy)phenyl)-4-methyl-3-(3-(pyridin-3-yl)acrylamido)benzamide], the IC50 is less than 1 nM.
On the same count and under the same terms, under `Cc1cn(-c2ccc(NC(=O)c3ccc(C)c(NC(=O)/C=C/c4cccnc4)c3)cc2C(F)(F)F)cn1` [compound 55, N-(4-(4-methyl-1H-imidazol-1-yl)-3-(trifluoromethyl)phenyl)-4-methyl-3-(3-(pyridin-3-yl)acrylamido)benzamide] stands less than 2 nM.
The same measure, in the same setting: under `Cc1ccc(C(=O)Nc2ccc(Cl)c(Cl)c2)cc1NC(=O)/C=C/c1cccnc1` [compound 56, N-(3,4-dichlorophenyl)-4-methyl-3-(3-(pyridin-3-yl)acrylamido)benzamide] stands 2 to 20 nM; under `Cc1ccc(C(=O)Nc2cc(C(F)(F)F)ccc2Cl)cc1NC(=O)/C=C/c1cccnc1` [compound 57, N-(2-chloro-5-(trifluoromethyl)phenyl)-4-methyl-3-(3-(pyridin-3-yl)acrylamido)benzamide], 2 to 20 nM.

The experiment is the same for the next values; noted with them: K562 cells, 72 h~120 h.
For `Cc1ccc(NC(=O)c2ccc(CN3CCC(N(C)C)C3)c(C(F)(F)F)c2)cc1NC(=O)/C=C/c1cccnc1` (centres unmarked) [compound 24, N-(4-methyl-3-(3-(pyridin-3-yl)acrylamido)phenyl)-4-((3-(dimethylamino)pyrrolidin-1-yl)methyl)-3-(trifluoromethyl)benzamide], the IC50 was less than 1 nM.
For the compound `Cc1ccc(NC(=O)c2ccc(CN3CCC(N(C)C)C3)c(C(F)(F)F)c2)cc1NC(=O)/C=C/c1cncnc1` (centres unmarked) [compound 44, N-(4-methyl-3-(3-(pyrimidin-5-yl)acrylamido)phenyl)-4-((3-(dimethylamino)pyrrolidin-1-yl)methyl)-3-(trifluoromethyl)benzamide], the IC50 is less than 1 nM.
